In patent publication US7951942B2, “Crystals of phenylalanine derivatives and production methods thereof” (Ajinomoto Co., Inc., priority 2003, dated 2011):

What was measured:
[1] = Temperature changes of the powder X-ray diffraction patterns (crystal transition, T-G curves); type: physicochemical; conditions: from T-G curves (FIG. 10)
Experimental: Measurement of the Temperature Changes of the Powder X-Ray Diffraction Patterns of the α-Type, γ-Type, ε-Type, and η-Type Crystals
• (1) The measuring method and conditions
The measurement was conducted in the same conditions as those of the above measurement of the powder X-ray diffraction patterns.

[2] = Water adsorption of the crystals (vapor adsorption isotherm); type: physicochemical; conditions: 25° C.
Experimental: The Measuring Method of the Water Adsorption of the Crystals (Creation of the Vapor Adsorption Isotherm)
• (1) The measuring method of water adsorption amount and conditions
100 mg of each of the above obtained α-type, γ-type and ε-type crystals were weighed and vacuum dried at 50° C. overnight. Then, under the constant temperature of 25° C., the water adsorption amount of the crystals was determined with a full automatic vapor adsorption measuring apparatus (BELSORP-18, BEL Japan, Inc.) (Mitsuiki et al., J. Agric. Food Chem., vol. 46, no. 9, pp. 3528-3534 (1998)). • (2) The measurement results

## COC(=O)[C@H](Cc1ccc(-n2c(=O)c3cc(N(C)C)ccc3n(C)c2=O)cc1)NC(=O)c1c(Cl)cccc1Cl [α-type crystal]
[1]; room temperature
  order of thermodynamic stability of crystal forms at room temperature: α-type>η-type>γ-type>ε-type>θ-type
[2]; listed as α-type
  water adsorption (in words): low water adsorption

## COC(=O)[C@H](Cc1ccc(-n2c(=O)c3cc(N(C)C)ccc3n(C)c2=O)cc1)NC(=O)c1c(Cl)cccc1Cl [θ-type crystal]
[1]; high temperature range
  thermodynamic stability in high temperature range: stably exists

## COC(=O)[C@H](Cc1ccc(-n2c(=O)c3cc(N(C)C)ccc3n(C)c2=O)cc1)NC(=O)c1c(Cl)cccc1Cl [ε-type crystal]
[2]; listed as ε-type
  water adsorption (in words): particularly low water adsorption

## COC(=O)[C@H](Cc1ccc(-n2c(=O)c3cc(N(C)C)ccc3n(C)c2=O)cc1)NC(=O)c1c(Cl)cccc1Cl [γ-type crystal]
[2]; listed as γ-type
  water adsorption (in words): particularly low water adsorption
